{"source": "patent US12054447B2", "about": "“PCNA inhibitors” (City of Hope, priority 2015, dated 2024)", "key": {"[1]": {"biological_target": "T1, Recombinant human PCNA (Homo sapiens, UniProt P12004)", "T1 construct": "made in house", "T1 sequence (P12004 whole entry)": "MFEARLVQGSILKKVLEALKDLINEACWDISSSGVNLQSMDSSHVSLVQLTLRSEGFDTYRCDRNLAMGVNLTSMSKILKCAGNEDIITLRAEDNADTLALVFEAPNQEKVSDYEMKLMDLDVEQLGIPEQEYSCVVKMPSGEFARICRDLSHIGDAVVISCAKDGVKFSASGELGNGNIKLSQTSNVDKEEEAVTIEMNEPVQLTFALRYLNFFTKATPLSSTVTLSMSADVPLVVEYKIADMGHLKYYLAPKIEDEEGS", "test": "Saturation Transfer Difference (STD) NMR, competition with T3", "format": "binding", "conditions": "1 μM PCNA, 30 μM T3, 3.2 μM AOH1160", "procedure": "Recombinant human PCNA was purified and exchanged to D2O-based phosphate buffered saline (PBS), pH 7.2. […] The reference spectra were acquired under the same condition without PCNA. 5 uM DSS was used as an internal reference to determine the reported ligand concentration in solution. All NMR experiments were carried out at 25° C. on 600 MHz Bruker Avance equipped with 5 mm triple resonance cryogenic probe. STD (Saturation Transfer Difference) NMR spectra were acquired with transients ranging from 2560 to 32000, spectral width 8012 Hz with 24 k data points. The recycle delay was 2.8 s. Selective saturation was composed of 50 gauss shaped pulses at a field strength of 86 Hz, and the duration of each pulse is 50 ms with a 500 μs delay between pulses. The spin lock filter used to suppress protein signal was optimized to 60 ms at field strength of 5 kHz. The frequency for protein saturation was optimized to be 0.9 ppm; the ligand signals were not disturbed with the employed selective saturation condition at this frequency. The reference spectrum was acquired with saturation irradiated at −30 ppm. To eliminate potential artifacts, the saturation and reference experiments were acquired in an interleaved manner, and the finished experiments were separated into two 1D data for analysis. The peak integration was carried out with Bruker Topspin software. […]"}, "[2]": {"test_system": "SK-N-BE(2)c derived xenograft tumors", "conditions": "30 mg/kg twice daily (BID) by oral gavages, vs vehicle"}, "[3]": {"test_system": "SK-N-DZ", "test": "Clonogenic assay with cisplatin", "format": "cell-based, human", "conditions": "cisplatin with or without 500 nM AOH1160 for 18 h, 3 weeks", "procedure": "Three hundred human SK-N-DZ NB cells were seeded onto a 60-mm tissue culture dish. Once attached overnight, cells were treated with or without various concentrations of cisplatin in the presence or absence of 500 nM of AOH1160 for 18 h. Cells were washed twice with growth medium and were cultured in fresh medium for 3 weeks to allow surviving cells to form colonies. The medium was changed every 3 days throughout the experiment. The colonies formed under each treatment conditions were counted after being stained with 0.5% crystal violet."}, "[4]": {"test": "Pharmacokinetics (PK) of AOH1160 in animals", "format": "in vivo, Rat", "conditions": "for AUC(0-inf) / Cmax / Tmax / half-life: rat, in vivo, po, 20 mg/kg, Rat PO 20 mg/kg"}, "[5]": {"test_system": "γH2A.X in 7SM0032 cells", "test": "Western blot", "format": "cell-based, human", "conditions": "500 nM", "procedure": "(§1) Cells were dissolved into the Laemmli sample buffer on the plate. The whole cell extracts were sonicated, and the proteins in the lysate were resolved using a 4-12% SDS polyacrylamide gel, and the resolved proteins were blotted onto a nitrocellulose membrane. Antibodies specific to H2A.X, cleaved caspase-3, full-length caspase-3, or cleaved caspase-9 were purchased from Cell Signaling Technology (Danvers, MA). The anti-γH2A.X antibody was purchased from Millipore. The membrane was blocked with 5% nonfat dry milk and incubated individually with each of these antibodies dissolved in the blocking buffer. After incubation with peroxidase-conjugated secondary antibodies, the protein of interest was detected using an ECL kit purchased from Thermo Fisher Scientific (Waltham, MA)."}, "[6]": {"test_system": "γH2A.X, caspase-3 and caspase-9 in SK-N-DZ cells", "test": "Western blot", "format": "cell-based, human", "conditions": "NB cells (SK-N-DZ), 500 nM", "procedure": "as §1"}, "[7]": {"biological_target": "human TRβ (Homo sapiens, UniProt P10828)", "sequence (P10828 whole entry)": "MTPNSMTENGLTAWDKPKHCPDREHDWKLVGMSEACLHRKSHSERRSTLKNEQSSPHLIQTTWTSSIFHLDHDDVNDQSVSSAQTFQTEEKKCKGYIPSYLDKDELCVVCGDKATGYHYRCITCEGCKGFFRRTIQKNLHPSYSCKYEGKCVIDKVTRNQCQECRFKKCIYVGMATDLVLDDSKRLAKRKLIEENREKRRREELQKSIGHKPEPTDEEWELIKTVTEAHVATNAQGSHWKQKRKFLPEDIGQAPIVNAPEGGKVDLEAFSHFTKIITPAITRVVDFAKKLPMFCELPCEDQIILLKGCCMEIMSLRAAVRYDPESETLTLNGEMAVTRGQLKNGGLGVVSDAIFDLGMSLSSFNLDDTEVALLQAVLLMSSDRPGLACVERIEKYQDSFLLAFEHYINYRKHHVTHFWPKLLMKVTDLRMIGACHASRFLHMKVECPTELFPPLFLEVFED", "test": "Human thyroid hormone receptor beta (TRβ) reporter assay", "format": "cell-based", "conditions": "TRβ reporter cells, 24 h", "description": "Reporter cells constitutively expressing human TRβ and containing a luciferase reporter gene functionally linked to a TRβ-responsive promoter were purchased from Indigo Biosciences (State College, PA). […] The effect of each compound on TRβ activity was examined by measuring the luciferase reporter gene expression according to the manufacturer's instruction."}, "[8]": {"test_system": "SK-N-DZ", "test": "TUNEL assay / sub-G1 population (apoptosis)", "format": "cell-based, human", "conditions": "NB cells (SK-N-DZ), 500 nM, 24 h", "procedure": "To measure the effect of the compounds on cell growth, cells were seeded at 3×10^4/ml into a 96-well plate. Once attached, cells were treated with various concentrations of AOH1160 for 72 h. Cell growth was measured by the CellTitor-Glo assay (Promega, Madison, WI) according to the manufacturer's instructions. To measure apoptosis, cells were seeded at 1×10^5/ml onto a chamber slide. Once attached, cells were treated with the 500 nM AOH1160 for 24 h. Cells were fixed and analyzed by a TUNEL assay using the TMR red in situ cell death detection kit (Roche Diagnostics, Indianapolis, IN)."}}, "data": [{"compound": "O=C(CNC(=O)c1cccc2ccccc12)Nc1ccccc1Oc1ccccc1", "note": "[AOH1160]", "values": [{"measurement": "competition with T3 for binding to PCNA", "setting": "[1]", "result": "competes with T3 for binding to PCNA"}, {"measurement": "tumor burden", "setting": "[2]", "result": "significantly reduced tumor burden"}, {"measurement": "sensitivity to cisplatin (colony formation)", "setting": "[3]", "result": "more sensitive to cisplatin treatment in the presence of AOH1160 than in its absence"}, {"measurement": "oral availability", "setting": "[4]; animals", "result": "orally available"}, {"measurement": "AUC(0-inf)", "setting": "[4]; BID dosing", "result": "429 ± 195", "unit": "ng·h/mL"}, {"measurement": "Cmax", "setting": "[4]; BID dosing", "result": "73 ± 23", "unit": "ng/mL"}, {"measurement": "Tmax", "setting": "[4]; BID dosing", "result": 6, "unit": "h"}, {"measurement": "half-life", "setting": "[4]; BID dosing", "result": "4.3 ± 1.7", "unit": "h"}, {"measurement": "AUC(0-inf)", "setting": "[4]; Single dosing", "result": "383 ± 110", "unit": "ng·h/mL"}, {"measurement": "Cmax", "setting": "[4]; Single dosing", "result": "50 ± 31", "unit": "ng/mL"}, {"measurement": "Tmax", "setting": "[4]; Single dosing", "result": "3.3 ± 2.3", "unit": "h"}, {"measurement": "half-life", "setting": "[4]; Single dosing", "result": "3.8 ± 31", "unit": "h"}, {"measurement": "intracellular γH2A.X level", "setting": "[5]", "result": "Nor does it increase intracellular γH2A.X level"}, {"measurement": "caspase activation", "setting": "[6]", "result": "activation of caspase-3 and caspase-9"}, {"measurement": "γH2A.X levels", "setting": "[6]", "result": "increases γH2A.X levels"}, {"measurement": "thyroid hormone activity in a TR reporter assay", "setting": "[7]", "result": "did not show any thyroid hormone activity"}, {"measurement": "apoptosis", "setting": "[8]", "result": "apoptosis as indicated by the increase in the sub-G1 population (FIG. 2A) and TUNEL positivity"}]}]}
